Test results taken from PMC7016291 (Acta Pharmaceutica Sinica. B, 2019).
Values joined by “and” are separate entries in the source; they are usually repeats but may differ in a detail not shown here. Equal values may be shown once.

What was measured:
HIV-1 Y181C = assay: Anti-HIV-1 activity against mutant strain Y181C in MT-4 cells; assay type: cell-based; details: Human immunodeficiency virus 1, MT4, read-out: EC50 Y181C
[1] = Cytotoxicity in uninfected MT-4 cells; assay type: cell-based; details: human, uninfected MT-4 cells
[2] = test system: HIV-1 RES056 (K103N/Y181C); assay: Anti-HIV-1 activity against double mutant RES056 in MT-4 cells; assay type: cell-based; details: Human immunodeficiency virus 1, MT4, read-out: EC50 RES056
HIV-1 RT RNase H = HIV-1 RT RNase H (Human immunodeficiency virus type 1 group M subtype B, UniProt P03366); assay: HIV-1 RT RNase H inhibition; assay type: biochemical
HIV-1 L100I = assay: Anti-HIV-1 activity against mutant strain L100I in MT-4 cells; assay type: cell-based; details: Human immunodeficiency virus 1, MT4, read-out: EC50 L100I
HIV-1 E138K = assay: Anti-HIV-1 activity against mutant strain E138K in MT-4 cells; assay type: cell-based; details: Human immunodeficiency virus 1, MT4, read-out: EC50 E138K
HIV-1 Y188L = assay: Anti-HIV-1 activity against mutant strain Y188L in MT-4 cells; assay type: cell-based; details: Human immunodeficiency virus 1, MT4, read-out: EC50 Y188L
HIV-2 (ROD) = assay: Anti-HIV activity in MT-4 cells; assay type: cell-based; details: Human immunodeficiency virus 2, MT4, read-out: EC50 ROD
HIV-1 K103N = assay: Anti-HIV-1 activity against mutant strain K103N in MT-4 cells; assay type: cell-based; details: Human immunodeficiency virus 1, MT4, read-out: EC50 K103N
HIV-1 F227L + V106A = assay: Anti-HIV-1 activity against double mutant F227L + V106A in MT-4 cells; assay type: cell-based; details: Human immunodeficiency virus 1, MT4, read-out: EC50 F227L + V106A
WT HIV-1 RT = WT HIV-1 RT (Human immunodeficiency virus type 1 group M subtype B, UniProt P03366); assay: HIV-1 RT inhibition assay; assay type: biochemical
[3] = Kinetic aqueous solubility; details: kinetic from dmso stock
[4] = aqueous solution at pH 2.0, pH 2, aqueous buffer
[5] = aqueous solution at pH 7.0, pH 7, aqueous buffer
[6] = aqueous solution at pH 7.4, pH 7.4, aqueous buffer

Row | Compound | EC50 (HIV-1 Y181C) [µM] | CC50 at 4 days [1] | EC50 [2] [µM] | IC50 (HIV-1 RT RNase H) [µM] | activity against RNase H (HIV-1 RT RNase H) | EC50 (HIV-1 L100I) [µM] | EC50 (HIV-1 E138K) [µM] | EC50 (HIV-1 Y188L) [µM] | EC50 (HIV-2 (ROD)) [µM] | EC50 (HIV-1 K103N) [µM] | EC50 (HIV-1 F227L + V106A) [µM] | IC50 (WT HIV-1 RT) [µM] | solubility kinetic ([3]; FaSSIF) | solubility kinetic [3, 4] | solubility kinetic [3, 5] | solubility kinetic [3, 6]
1 | Cc1cc(-c2ccc(C#N)cc2)cc(C)c1Oc1nc(Nc2ccc(C#N)cc2)nc(N2CCC(O)C2)n1 (stereo not drawn) [Compound 5h, 4ʹ-((4-((4-Cyanophenyl)amino)-6-(3-hydroxypyrrolidin-1-yl)-1,3,5-triazin-2-yl)-oxy)-3ʹ,5ʹ-dimethyl-[1,1ʹ-biphenyl]-4-carbonitrile] | 0.0092 ± 0.0008 | 5.72 ± 0.08 µM | 0.19 ± 0.05 | > 828 | slight activity | 0.0082 ± 0.0022 | 0.0065 ± 0.0006 | 0.023 ± 0.006 | 2.91 ± 0.98 | 0.0036 ± 0.0009 | 0.93 ± 0.11 | 0.161 | 14.7 µg/mL and 29.2 µM | 3.45 µg/mL and 6.85 µM | < 0.786 µg/mL and < 1.56 µM | < 0.786 µg/mL and < 1.56 µM
2 | Cc1cc(-c2ccc(C#N)cc2)cc(C)c1Nc1nc(Nc2ccc(C#N)cc2)nc(NC2CCOCC2)n1 [Compound 6c, 4ʹ-((4-((4-Cyanophenyl)amino)-6-((tetrahydro-2H-pyran-4-yl)amino)-1,3,5-triazin-2-yl)amino)-3ʹ,5ʹ-dimethyl-[1,1ʹ-biphenyl]-4-carbonitrile] | – | > 125 µM | – | > 1160 | – | – | – | – | 40 | – | – | 0.246 | – | – | – | –
3 | Cc1cc(-c2ccc(C#N)cc2)cc(C)c1Nc1nc(NCC2CCOCC2)nc(Nc2ccc(C#N)cc2)n1 [Compound 6d, 4ʹ-((4-((4-Cyanophenyl)amino)-6-(((tetrahydro-2H-pyran-4-yl)methyl)amino)-1,3,5-triazin-2-yl)amino)-3ʹ,5ʹ-dimethyl-[1,1ʹ-biphenyl]-4-carbonitrile] | – | > 125 µM | – | > 1130 | – | – | – | – | 13.8 | – | – | 0.241 | – | – | – | –
4 | Cc1cc(-c2ccc(C#N)cc2)cc(C)c1Nc1nc(NCC2CCOC2)nc(Nc2ccc(C#N)cc2)n1 (stereo not drawn) [Compound 6e, 4ʹ-((4-((4-Cyanophenyl)amino)-6-(((tetrahydrofuran-3-yl)methyl)amino)-1,3,5-triazin-2-yl)amino)-3ʹ,5ʹ-dimethyl-[1,1ʹ-biphenyl]-4-carbonitrile] | 0.011 ± 0.001 | > 125 µM | 0.06 ± 0.007 | > 1160 | – | 0.022 ± 0.006 | 0.0053 ± 0.0033 | 0.05 ± 0.008 | 7.91 ± 5.7 | 0.0034 ± 0.0005 | ≥ 16.4 | 0.106 | 60.5 µg/mL and 117 µM | 12.1 µg/mL and 23.4 µM | < 0.806 µg/mL and < 1.56 µM | < 0.806 µg/mL and < 1.56 µM
5 | COC(=O)[C@@H]1CCCN1c1nc(Nc2ccc(C#N)cc2)nc(Nc2c(C)cc(-c3ccc(C#N)cc3)cc2C)n1 [Compound 6f, Methyl (4-((4ʹ-cyano-3,5-dimethyl-[1,1ʹ-biphenyl]-4-yl)amino)-6-((4-cyanophenyl)amino)-1,3,5-triazin-2-yl)-L-prolinate] | – | > 125 µM | – | > 1100 | – | – | – | – | > 125 | – | – | 0.253 | – | – | – | –
6 | Cc1cc(-c2ccc(C#N)cc2)cc(C)c1Nc1nc(Nc2ccc(C#N)cc2)nc(N2CCOCC2)n1 [Compound 6g, 4ʹ-((4-((4-Cyanophenyl)amino)-6-morpholino-1,3,5-triazin-2-yl)amino)-3ʹ,5ʹ-dimethyl-[1,1ʹ-biphenyl]-4-carbonitrile] | – | > 125 µM | – | > 1190 | – | – | – | – | 39.9 | – | – | 0.137 | – | – | – | –
7 | Cc1cc(-c2ccc(C#N)cc2)cc(C)c1Nc1nc(Nc2ccc(C#N)cc2)nc(N2CCNCC2)n1 [Compound 6h, 4ʹ-((4-((4-Cyanophenyl)amino)-6-(piperazin-1-yl)-1,3,5-triazin-2-yl)amino)-3ʹ,5ʹ-dimethyl-[1,1ʹ-biphenyl]-4-carbonitrile] | – | 9.24 ± 5.5 µM | – | > 1200 | – | – | – | – | > 9.24 | – | – | 0.341 | – | – | – | –
8 | Cc1cc(-c2ccc(C#N)cc2)cc(C)c1Nc1nc(Nc2ccc(C#N)cc2)nc(N2CCN(C)CC2)n1 [Compound 6i, 4ʹ-((4-((4-Cyanophenyl)amino)-6-(4-methylpiperazin-1-yl)-1,3,5-triazin-2-yl)amino)-3ʹ,5ʹ-dimethyl-[1,1ʹ-biphenyl]-4-carbonitrile] | 0.017 ± 0.005 | 3.69 ± 2.98 µM | 0.35 ± 0.08 | > 1160 | – | 0.029 | 0.01 ± 0.002 | 0.067 ± 0.016 | > 3.69 | 0.0074 ± 0.0021 | ≥ 3.69 | 0.227 | 60.6 µg/mL and 117 µM | 77.3 µg/mL and 150 µM | < 0.804 µg/mL and < 1.56 µM | < 0.804 µg/mL and < 1.56 µM
9 | Cc1cc(-c2ccc(C#N)cc2)cc(C)c1Nc1nc(Nc2ccc(C#N)cc2)nc(N2CCCC2CO)n1 (stereo not drawn) [Compound 6j, 4ʹ-((4-((4-Cyanophenyl)amino)-6-(2-(hydroxymethyl)pyrrolidin-1-yl)-1,3,5-triazin-2-yl)amino)-3ʹ,5ʹ-dimethyl-[1,1ʹ-biphenyl]-4-carbonitrile] | – | 62.9 ± 7.99 µM | – | > 1160 | – | – | – | – | 15.7 | – | – | 0.157 | – | – | – | –
10 | Cc1cc(-c2ccc(C#N)cc2)cc(C)c1Nc1nc(Nc2ccc(C#N)cc2)nc(N2CCC(O)C2)n1 (stereo not drawn) [Compound 6k, 4ʹ-((4-((4-Cyanophenyl)amino)-6-(3-hydroxypyrrolidin-1-yl)-1,3,5-triazin-2-yl)-amino)-3ʹ,5ʹ-dimethyl-[1,1ʹ-biphenyl]-4-carbonitrile] | 0.003 ± 0.0002 | 4.54 ± 2.56 µM | 0.06 | > 1190 | – | 0.0041 ± 0.0005 | 0.0035 ± 0.0008 | 0.01 ± 0.003 | > 4.54 | 0.0023 ± 0.0005 | 1.04 | 0.103 | 53.4 µg/mL and 104 µM | 53.7 µg/mL and 104 µM | < 0.784 µg/mL and < 1.56 µM | < 0.784 µg/mL and < 1.56 µM
11 | Cc1cc(-c2ccc(C#N)cc2)cc(C)c1Nc1nc(Nc2ccc(C#N)cc2)nc(N2CCC(O)CC2)n1 [Compound 6l, 4ʹ-((4-((4-Cyanophenyl)amino)-6-(4-hydroxypiperidin-1-yl)-1,3,5-triazin-2-yl)-amino)-3ʹ,5ʹ-dimethyl-[1,1ʹ-biphenyl]-4-carbonitrile] | – | 5.71 ± 3.93 µM | – | > 1160 | – | – | – | – | > 5.71 | – | – | 0.223 | – | – | – | –
12 | Cc1cc(-c2ccc(C#N)cc2)cc(C)c1Nc1nc(NCCN2CCOCC2)nc(Nc2ccc(C#N)cc2)n1 [Compound 6m, 4ʹ-((4-((4-Cyanophenyl)amino)-6-((2-morpholinoethyl)amino)-1,3,5-triazin-2-yl)-amino)-3ʹ,5ʹ-dimethyl-[1,1ʹ-biphenyl]-4-carbonitrile] | – | 13.9 ± 10.7 µM | – | > 995 | – | – | – | – | > 13.9 | – | – | 0.176 | – | – | – | –
13 | Cc1cc(-c2ccc(C#N)cc2)cc(C)c1Nc1nc(NCCN2CCN(C)CC2)nc(Nc2ccc(C#N)cc2)n1 [Compound 6n, 4ʹ-((4-((4-Cyanophenyl)amino)-6-((2-(4-methylpiperazin-1-yl)ethyl)amino)-1,3,5-triazin-2-yl)amino)-3ʹ,5ʹ-dimethyl-[1,1ʹ-biphenyl]-4-carbonitrile] | – | 2.34 ± 0.64 µM | – | > 1070 | – | – | – | – | > 2.34 | – | – | 0.156 | – | – | – | –
14 | Cc1ccnc2c1NC(=O)c1cccnc1N2C1CC1 [NVP, nevirapine, reference compound] | > 4 | > 4 µg/mL | > 4 | – | – | 0.46 ± 0.11 | 0.057 ± 0.006 | > 4 | – | 3.19 ± 3.9 | > 4 | – | – | – | – | –
